In brackets after ≈: the same amount, converted by molar mass.
Tests used:
MCF7 = assay: Cytotoxicity against human MCF7 cells; format: functional; conditions: read-out: ED50 (the source's name)
P388 = assay: Cytotoxicity against mouse P388 cells; format: functional; conditions: read-out: ED50 (the source's name)

| Structure (SMILES) | EC50 (MCF7) [µg/mL] | EC50 (P388) [µg/mL] |
| --- | --- | --- |
| O=C(NC[C@@H](c1ccc2c(c1)OCO2)[C@@H](O)[C@H](O)[C@@H](O)CO)c1ccccc1 | > 30 |  |
| O=C1N[C@H]2[C@H](O)[C@H](O)CC[C@@H]2c2cc3c(cc21)OCO3 |  | 1.39 (≈ 5.01 µM) |
| CC1(C)O[C@@H]([C@H](O)[C@@H](CNC(=O)c2ccccc2)c2ccc3c(c2)OCO3)[C@H](CO)O1 | > 30 |  |
| O=C1N[C@H]2C[C@H](O)[C@@H](O)C[C@@H]2c2cc3c(cc21)OCO3 |  | 0.45 (≈ 1.62 µM) |
| O=C1N[C@H]2[C@H](O)[C@H](O)[C@@H](O)[C@H](O)[C@@H]2c2cc3c(c(O)c21)OCO3 [PANCRATISTATIN] |  | 0.039 (≈ 0.12 µM) |

Source: ChEMBL document CHEMBL1144786, “synthesis and biological evaluation of fully functionalized seco-pancratistatin analogues” (2008)
